ChEMBL document CHEMBL5376005, “Gut Metabolite Indoxyl Sulfate Has Selective Deleterious and Anticancer Effect on Colon Cancer Cells” (J Med Chem, 2023)
Where a name gives a salt, the structure may show the parent alone. Calls of active or inactive are those of the source. No cut-off for these calls is given here.

Columns and labels:
[1] = system: HCT-116; assay: Induction of cell cycle arrest in human HCT-116 cells assessed as increase in proportion of cells at G2/M phase at 5 mM incubated for 48 hrs by RNase A/Triton X-100/PI staining based flow cytometry analysis relative to control; type: functional
[2] = system: Cell membrane; assay: Induction of membrane integrity loss in human HCT-116 cells assessed as LDH release in supernatant at 10 mM incubated for 48 hrs by absorbance based assay relative to control
[3] = system: HT-29; assay: Cytotoxicity against human HT-29 cells assessed as cell viability at 10 mM measured after 72 hrs by CellTiter-Glo luminescent cell viability assay (reference value: 100%); type: functional; settings: HT-29, 72 h, read-out: Activity
[4] = system: HT-29; assay: Cytotoxicity against human HT-29 cells assessed as cell viability at 10 mM measured after 24 hrs by MTT assay (reference value: 100%); type: functional; settings: HT-29, 24 h, read-out: Activity
[5] = system: HT-29; assay: Induction of apoptosis in human HT-29 cells assessed as increase in apoptotic cells at 10 mM incubated for 48 hrs by annexin V-FITC/PI staining based flow cytometry analysis (reference value: 3%); type: functional
[6] = system: HT-29; assay: Cytotoxicity against human HT-29 cells assessed as reduction in cell viability measured after 24 to 72 hrs by MTT assay; type: functional, cell-based; settings: dose 0.01-10 mM, time 24-72 hrs
[7] = system: Cell membrane; assay: Induction of membrane integrity loss in human HCT-116 cells assessed as LDH release in supernatant at 5 mM incubated for 48 hrs by absorbance based assay relative to control; type: subcellular
[8] = Toxicity in wild type BALB/c mouse assessed as inflammatory symptoms by measuring change in TNFalpha level at 100 mM, ip measured for 0 to 3 months by ELISA; type: organism-based; settings: in vivo, 100000 µM, time 0-3 months
[9] = system: HT-29; assay: Induction of DNA damage in human HT-29 cells by comet assay; type: functional, cell-based
[10] = system: HCT-116; assay: Cytotoxicity against human HCT-116 cells assessed as cell viability at 10 mM measured after 24 hrs by MTT assay (reference value: 100%); type: functional; settings: HCT-116, 24 h, read-out: Activity
[11] = system: HT-29; assay: Induction of apoptosis in human HT-29 cells assessed as increase in apoptotic cells at 5 mM incubated for 48 hrs by annexin V-FITC/PI staining based flow cytometry analysis (reference value: 3%); type: functional
[12] = system: HCT-116; assay: Induction of morphological changes in human HCT-116 cells assessed as reduction in cell number at 1.25 to 10 mM incubated for 24 to 72 hrs by bright field microscopy analysis; type: functional, cell-based; settings: dose 1.25-10 mM, time 24-72 hrs
[13] = Toxicity in wild type BALB/c mouse assessed as inflammatory symptoms by measuring change in IL-1beta level at 100 mM, ip measured for 0 to 3 months by ELISA; type: organism-based; settings: in vivo, 100000 µM, time 0-3 months
[14] = system: HCT-116; assay: Cytotoxicity against human HCT-116 cells assessed as reduction in cell viability at 0.01 to 10 mM by MTT assay; type: functional, cell-based; settings: dose 0.01-10 mM, time 24-72 hrs, TDE = time-dependent effect
[15] = system: HCT-116; assay: Induction of morphological changes in human HCT-116 cells assessed as appearance of rounded morphology at 1.25 to 10 mM incubated for 24 to 72 hrs by bright field microscopy analysis; type: functional, cell-based; settings: dose 1.25-10 mM, time 24-72 hrs
[16] = system: HCT-116; assay: Cytotoxicity against human HCT-116 cells assessed as reduction in cell viability at 0.01 to 10 mM by CellTiter-Glo luminescent cell viability assay; type: functional, cell-based; settings: dose 0.01-10 mM, time 48-72 hrs, TDE = time-dependent effect
[17] = system: HCT-116; assay: Induction of cell cycle arrest in human HCT-116 cells assessed as increase in proportion of cells at G2/M phase at 10 mM incubated for 48 hrs by RNase A/Triton X-100/PI staining based flow cytometry analysis relative to control; type: functional
[18] = system: HCT-116; assay: Induction of morphological changes in human HCT-116 cells assessed as detachment from substrate at 1.25 to 10 mM incubated for 24 to 72 hrs by bright field microscopy analysis; type: functional, cell-based; settings: dose 1.25-10 mM, time 24-72 hrs
[19] = Toxicity in wild type BALB/c mouse assessed as change in intestinal length at 100 mM, REC measured after 12 weeks; type: tissue-based, Intestine; settings: in vivo, other, 2016 h, 100000 µM
[20] = system: HCT-116; assay: Cytotoxicity against human HCT-116 cells assessed as reduction in cell viability measured after 24 to 72 hrs by MTT assay; type: functional, cell-based; settings: dose 0.01-10 mM, time 24-72 hrs
[21] = Toxicity in wild type BALB/c mouse assessed as change in spleen length at 100 mM, ip measured after 12 weeks; type: organism-based; settings: in vivo, 2016 h, 100000 µM
[22] = system: HCT-116; assay: Induction of apoptosis in human HCT-116 cells assessed as increase in apoptotic cells at 10 mM incubated for 48 hrs by annexin V-FITC/PI staining based flow cytometry analysis (reference value: 3%); type: functional
[23] = Toxicity in wild type BALB/c mouse assessed as inflammatory symptoms by measuring change in IL-17 level at 100 mM, REC measured for 0 to 3 months by ELISA; settings: in vivo, other, 100000 µM, time 0-3 months
[24] = Toxicity in wild type BALB/c mouse assessed as reduction in body weight at 100 mM, REC measured after 12 weeks; settings: in vivo, other, 2016 h, 100000 µM
[25] = system: HT-29; assay: Cytotoxicity against human HT-29 cells assessed as reduction in colony formation pretreated for 48 hrs and further incubated for 10 days with media replacement for every alternate day; type: functional, cell-based; settings: dose 1.25-10 mM
[26] = system: HT-29; assay: Cytotoxicity against human HT-29 cells assessed as reduction in cell viability at 0.01 to 10 mM by MTT assay; type: functional, cell-based; settings: dose 0.01-10 mM, time 24-72 hrs, TDE = time-dependent effect
[27] = system: HT-29; assay: Cytotoxicity against human HT-29 cells assessed as cell viability at 10 mM measured after 48 hrs by MTT assay (reference value: 100%); type: functional; settings: HT-29, 48 h, read-out: Activity
[28] = system: HCT-116; assay: Induction of morphological changes in human HCT-116 cells assessed as formation of intracellular vesicles at 1.25 to 10 mM incubated for 24 to 72 hrs by bright field microscopy analysis; type: functional, cell-based; settings: dose 1.25-10 mM, time 24-72 hrs
[29] = system: HT-29; assay: Cytotoxicity against human HT-29 cells assessed as reduction in cell viability measured after 48 to 72 hrs by CellTiter-Glo luminescent cell viability assay; type: functional, cell-based; settings: dose 0.01-10 mM, time 48-72 hrs
[30] = system: HT-29; assay: Induction of morphological changes in human HT-29 cells assessed as reduction in cell number at 1.25 to 10 mM incubated for 24 to 72 hrs by bright field microscopy analysis; type: functional, cell-based; settings: dose 1.25-10 mM, time 24-72 hrs
[31] = Toxicity in wild type BALB/c mouse assessed as inflammatory symptoms by measuring change in fecal consistency at 100 mM, ip measured after 12 weeks; type: organism-based; settings: in vivo, 2016 h, 100000 µM
[32] = Toxicity in wild type BALB/c mouse assessed as inflammatory symptoms by measuring change in IL-17 level at 100 mM, ip measured for 0 to 3 months by ELISA; type: organism-based; settings: in vivo, 100000 µM, time 0-3 months
[33] = system: HT-29; assay: Induction of morphological changes in human HT-29 cells assessed as appearance of rounded morphology at 1.25 to 10 mM incubated for 24 to 72 hrs by bright field microscopy analysis; type: functional, cell-based; settings: dose 1.25-10 mM, time 24-72 hrs

- Activity [2]: 86%
- Activity [7]: 80%
SMILES: O=S(=O)(O)Oc1c[nH]c2ccccc12 [INDOXYL SULFATE]
- Activity [1]: 18.1%
- viability at 10000 µM [3]: 19%
- viability at 10000 µM [4]: 41%
- Activity [5]: 12%
- Activity [6]: Dose-Dependent Effect
- Activity [8]: Non-Toxic
- Activity [9]: inactive
- viability at 10000 µM [10]: 30%
- Activity [11]: 8%
- Activity [12]: Active
- Activity [13]: Non-Toxic
- Activity [14]: Tde
- Activity [15]: Active
- Activity [16]: Tde
- Activity [17]: 22.7%
- Activity [18]: Active
- Activity [19]: Non-Toxic
- Activity [20]: Dose-Dependent Effect
- Activity [21]: Non-Toxic
- Activity [22]: 13%
- Activity [23]: Non-Toxic
- Activity [24]: Non-Toxic
- Activity [25]: Dose-Dependent Effect
- Activity [26]: Tde
- viability at 10000 µM [27]: 30%
- Activity [28]: Active
- Activity [29]: Dose-Dependent Effect
- Activity [30]: Active
- Activity [31]: Non-Toxic
- Activity [32]: Non-Toxic
- Activity [33]: Active
